Experimental data published in patent US20240277583A1, “Micellar Mouthwash Composition” (Colgate-Palmolive Company, priority 2022, published 2024).

Key:
[1] = Colloid particle (micelle) size by dynamic light scattering; format: physicochemical; conditions: colloid particle diameter
Text: Next, the colloid particle (micelle) size in Formulations A and B as well as Elmex mouthwash is examined.
In contrast, the micelle size of Formulation B is around 14.1 nm, close to that of PEG-40 hydrogenated castor oil (16.0 nm). Although the inflection point of the surface tension curve is not obvious in the Elmex mouthwash, dynamic light scattering detects colloid particles with 12.2 nm diameter, which are likely solubilized oil droplets in the mouthwash product. With the smallest particle size (amine fluoride/coco glucoside<amine fluoride<amine fluoride/PEG-40 hydrogenated castor oil), amine fluoride/cocoyl glucoside complex is most mobile and can likely reach smaller spaces that others cannot reach. This feature would likely enhance the delivery of active encapsulated in the micelle core, and also enhance availability of amine fluoride, therefore improving its antibacterial efficacy.

[2] = Diffusion rate D determined by NMR; format: physicochemical

In the case of `CCCCCCCCCCCCCCCCCCN(CCO)CCCN(CCO)CCO.F.F` [Olaflur, N′-octadecyltrimethylenediamine-N,N,N′-tris(2-ethanol)-dihydrofluoride], the “Micelle size (nm) mean” value [1] is reported as 6.6 nm, the “D in individual solution” value ([2]; ingredient alone in solution) is reported as 4.84 × 10^−6 cm^2/s and the “D in Formulation A” value ([2]; ingredient within Formulation A (Olaflur + coco glucoside)) is reported as 2.27 × 10^−6 cm^2/s. The “D in Formulation B” value ([2]; ingredient within Formulation B (Olaflur + PEG-40 hydrogenated castor oil)) was 4.33 × 10^−6 cm^2/s.
